Measured values from patent publication US8518958B2, “Pyrido [2,3-D] pyrimidines and their use as kinase inhibitors” (Forma Therapeutics, Inc., priority 2006, dated 2013).

Key:
[1] = system: HT-29 tumor cells; assay: Anti-proliferative activity, SRB assay; type: cell-based, human; conditions: Homo sapiens, HT-29, 72 h, 72 hours exposure, read-out: CELLULAR IC50 HT-29
Outline: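 Cells at 3,000-15,000/well, plated 24 h before compound, exposed to a concentration range for 72 hours. Proliferation measured by SRB staining after cold TCA fixation, absorbance at OD570; IC50 estimated from % inhibition versus DMSO-treated cells.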

[2] = biological target: B-Raf delta1-415 (Homo sapiens, UniProt P15056); assay: B-Raf kinase inhibition (MAPH filter plate, 33P-ATP, MEK1 substrate); conditions: read-out: Biochemical IC50 B-Raf
Sequence of B-Raf delta1-415 (P15056 416-766): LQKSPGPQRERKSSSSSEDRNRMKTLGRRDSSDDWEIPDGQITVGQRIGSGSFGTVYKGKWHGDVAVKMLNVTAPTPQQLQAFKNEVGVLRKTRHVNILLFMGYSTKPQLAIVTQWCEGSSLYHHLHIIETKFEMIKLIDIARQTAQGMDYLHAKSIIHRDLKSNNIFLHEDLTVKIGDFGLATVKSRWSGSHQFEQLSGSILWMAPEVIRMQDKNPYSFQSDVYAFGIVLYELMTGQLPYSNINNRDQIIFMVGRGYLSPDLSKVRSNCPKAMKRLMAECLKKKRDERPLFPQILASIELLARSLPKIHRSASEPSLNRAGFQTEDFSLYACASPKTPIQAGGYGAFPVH
Outline: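 Radiometric filter-binding assay with B-Raf delta1-415 at a level giving 50% turnover, MEK1 substrate and 33P-ATP (12.5 μCi/ml) in 20 mM Mops pH 7.0 with Mg/Mn, 1 h at room temperature. Inhibitor dilution series from 10 μM; EDTA-stopped reactions captured on phosphocellulose filters, counted by scintillation for IC50.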

## COn1c(=O)c(-c2c(F)cccc2Cl)cc2cnc(Nc3ccc(N4CCN(C(C)C)CC4)cc3)nc21 [Compound 203, 6-(2-Chloro-6-fluorophenyl)-8-methoxy-2-(4-(4-(1-methylethyl)piperazino)phenyl)-amino-pyrido[2,3-d]pyrimidin-7-one]
[1]
  IC50: < 1000 nM
[2]
  IC50: < 100 nM

## COn1c(=O)c(-c2c(Cl)cccc2Cl)cc2cnc(Nc3cccc(CS(=O)(=O)NCCO)c3)nc21 [Compound 156, 6-(2,6-Dichlorophenyl)-2-(3-((2-hydroxyethylamino)sulfonylmethyl)phenyl)-amino-8-methoxy-pyrido[2,3-d]pyrimidin-7-one]
[1]
  IC50: < 1000 nM
[2]
  IC50: < 500 nM

## COn1c(=O)c(-c2c(Cl)cccc2Cl)cc2cnc(Nc3ccc(CN4CC[C@H](O)C4)cc3)nc21 [Compound 180, 6-(2,6-Dichlorophenyl)-2-(4-(3-(S)-hydroxypyrrolidinomethyl)phenyl)-amino-8-methoxy-pyrido[2,3-d]pyrimidin-7-one]
[1]
  IC50: < 1000 nM
[2]
  IC50: < 100 nM

## COn1c(=O)c(-c2c(Cl)cccc2Cl)cc2cnc(Nc3ccc(OCCN4CCCC4)cc3)nc21 [Compound 91, 6-(2,6-Dichlorophenyl)-8-methoxy-2-(4-(2-pyrrolidinoethyl)oxyphenyl) amino-pyrido[2,3-d]pyrimidin-7-one]
[1]
  IC50: < 1000 nM
[2]
  IC50: < 500 nM

## O=c1c(-c2c(Cl)cccc2Cl)cc2cnc(Nc3ccccc3)nc2n1OCC1CCOCC1 [Compound 186, 6-(2,6-Dichlorophenyl)-2-phenylamino-8-(tetrahydropyran-4-ylmethyl)oxy-pyrido[2,3-d]pyrimidin-7-one]
[1]
  IC50: < 1000 nM
[2]
  IC50: < 500 nM

## COc1cc(Nc2ncc3cc(-c4c(F)cccc4Cl)c(=O)n(OC)c3n2)ccc1N1CCNCC1 [Compound 214, 6-(2-Chloro-6-fluorophenyl)-8-methoxy-2-(3-methoxy-4-piperazinophenyl)-amino-pyrido[2,3-d]pyrimidin-7-one]
[1]
  IC50: < 1000 nM
[2]
  IC50: < 100 nM

## COn1c(=O)c(-c2c(F)cccc2Cl)cc2cnc(Nc3ccc(N4CCOCC4)cc3)nc21 [Compound 136]
[1]
  IC50: < 1000 nM
[2]
  IC50: < 100 nM

## COn1c(=O)c(-c2c(Cl)cccc2Cl)cc2cnc(Nc3cc(C(=O)NC[C@H](O)CO)n(C)c3)nc21 [Compound 118, 6-(2,6-Dichlorophenyl)-2-(5-(2-(S)-2,3-dihydroxyethylamino)carbonyl-1-methyl-pyrrol-3-yl)-amino-8-methoxy-pyrido[2,3-d]pyrimidin-7-one]
[1]
  IC50: < 10000 nM
[2]
  IC50: < 100 nM

## COn1c(=O)c(-c2c(Cl)cccc2Cl)cc2cnc(Nc3ccncn3)nc21 [Compound 135, 6-(2,6-Dichlorophenyl)-8-methoxy-2-(pyrimidin-4-yl)-amino-pyrido[2,3-d]pyrimidin-7-one]
[1]
  IC50: < 10000 nM
[2]
  IC50: < 500 nM

## COn1c(=O)c(-c2c(Cl)cccc2Cl)cc2cnc(Nc3cccc(Cn4cncn4)c3)nc21 [Compound 134, 6-(2,6-Dichlorophenyl)-8-methoxy-2-(3-(1,2,4-triazol-1-ylmethyl)phenyl)-amino-pyrido[2,3-d]pyrimidin-7-one]
[1]
  IC50: < 1000 nM
[2]
  IC50: < 100 nM

## COn1c(=O)c(-c2c(F)cccc2Cl)cc2cnc(Nc3ccc(N4CCNCC4)cc3)nc21 [Compound 198, 6-(2-Chloro-6-fluorophenyl)-8-methoxy-2-(4-piperazinophenyl)-amino-pyrido[2,3-d]pyrimidin-7-one]
[1]
  IC50: < 1000 nM
[2]
  IC50: < 100 nM

## COc1cccc(Nc2ncc3cc(-c4c(F)cccc4Cl)c(=O)n(OC[C@H](O)CO)c3n2)c1 [Compound 76, 6-(2-Chloro-6-fluorophenyl)-8-(2-(R)-2,3-dihydroxypropyl)oxy-2-(3-methoxyphenyl)amino-pyrido[2,3-d]pyrimidin-7-one]
[1]
  IC50: < 1000 nM
[2]
  IC50: < 500 nM

## COn1c(=O)c(-c2c(Cl)cccc2Cl)cc2cnc(Nc3cccc(O)c3)nc21 [Compound 219, 6-(2,6-Dichlorophenyl)-2-(3-hydroxyphenyl)-amino-8-methoxy-pyrido[2,3-d]pyrimidin-7-one]
[1]
  IC50: < 10000 nM
[2]
  IC50: < 500 nM

## COn1c(=O)c(-c2c(Cl)cccc2Cl)cc2cnc(Nc3ccc(N4CCCN(C)CC4)cc3)nc21 [Compound 221, 6-(2,6-Dichlorophenyl)-8-methoxy-2-(4-(4-methyl-1,4-diazacycloheptyl)phenyl-)-amino-pyrido[2,3-d]pyrimidin-7-one]
[1]
  IC50: < 1000 nM
[2]
  IC50: < 100 nM

## COn1c(=O)c(-c2c(Cl)cccc2Cl)cc2cnc(Nc3cccc(NS(C)(=O)=O)c3)nc21 [Compound 119, 6-(2,6-Dichlorophenyl)-8-methoxy-2-(3-methylsulfonylaminophenyl)-amino-pyrido[2,3-d]pyrimidin-7-one]
[1]
  IC50: < 1000 nM
[2]
  IC50: < 100 nM

## COn1c(=O)c(-c2c(Cl)cccc2Cl)cc2cnc(Nc3ccc(Cn4cccn4)cc3)nc21 [Compound 124, 6-(2,6-dichlorophenyl)-8-methoxy-2-(4-(pyrazol-1-ylmethyl)phenyl)-amino-pyrido[2,3-d]pyrimidin-7-one]
[1]
  IC50: < 1000 nM
[2]
  IC50: < 500 nM

## COn1c(=O)c(-c2c(Cl)cccc2Cl)cc2cnc(Nc3ccc(N4CCCC4)cc3)nc21 [Compound 105, 6-(2,6-Dichlorophenyl)-8-methoxy-2-(4-pyrrolidinophenyl)-amino-pyrido[2,3-d]pyrimidin-7-one]
[1]
  IC50: < 10000 nM
[2]
  IC50: < 500 nM

## CCN(CC)Cc1ccc(Nc2ncc3cc(-c4c(Cl)cccc4Cl)c(=O)n(OC)c3n2)cc1 [Compound 167, 6-(2,6-Dichlorophenyl)-2-(4-diethylaminomethylphenyl)-amino-8-methoxy-pyrido[2,3-d]pyrimidin-7-one]
[1]
  IC50: < 1000 nM
[2]
  IC50: < 500 nM

## COn1c(=O)c(-c2c(Cl)cccc2Cl)cc2cnc(Nc3ccc(N4CCNCC4)cc3)nc21 [Compound 184, 6-(2,6-Dichlorophenyl)-8-methoxy-2-(4-piperazinophenyl)-amino-pyrido[2,3-d]pyrimidin-7-one]
[1]
  IC50: < 1000 nM
[2]
  IC50: < 100 nM

## COn1c(=O)c(-c2c(Cl)cccc2Cl)cc2cnc(Nc3ccc(CN4CCC(F)(F)C4)cc3)nc21 [Compound 196, 6-(2,6-Dichlorophenyl)-2-(4-(3,3-difluoropyrrolidinomethyl)phenyl)-amino-8-methoxy-pyrido[2,3.-d]pyrimidin-7-one]
[1]
  IC50: < 1000 nM
[2]
  IC50: < 500 nM

## COn1c(=O)c(-c2c(Cl)cccc2Cl)cc2cnc(NCc3ccccc3)nc21 [Compound 145, 6-(2,6-Dichlorophenyl)-8-methoxy-2-phenylmethylamino-pyrido[2,3-d]pyrimidin-7-one]
[1]
  IC50: < 10000 nM
[2]
  IC50: < 10000 nM

## COCCOn1c(=O)c(-c2c(F)cccc2Cl)cc2cnc(Nc3ccc(N4CCNCC4)cc3)nc21 [Compound 216, 6-(2-Chloro-6-fluorophenyl)-8-(2-methoxyethyl)oxy-2-(4-piperazinophenyl)-amino-pyrido[2,3-d]pyrimidin-7-one]
[1]
  IC50: < 1000 nM
[2]
  IC50: < 500 nM

## COCCOn1c(=O)c(-c2c(Cl)cccc2Cl)cc2cnc(Nc3ccc(N4CCNCC4)cc3)nc21 [Compound 195, 6-(2,6-Dichlorophenyl)-8-(2-methoxyethyl)oxy-2-(4-piperazinophenyl)-amino-pyrido[2,3-d]pyrimidin-7-one]
[1]
  IC50: < 1000 nM
[2]
  IC50: < 500 nM

## O=c1c(-c2c(F)cccc2Cl)cc2cnc(Nc3ccc(N4CCOCC4)cc3)nc2n1OCC1CCC1 [Compound 172]
[1]
  IC50: < 1000 nM
[2]
  IC50: < 500 nM

## COn1c(=O)c(-c2c(Cl)cccc2Cl)cc2cnc(Nc3cccc(S(C)(=O)=O)c3)nc21 [Compound 157, 6-(2,6-Dichlorophenyl)-8-methoxy-2-(3-methylsulfonylphenyl)-amino-pyrido[2,3-d]pyrimidin-7-one]
[1]
  IC50: < 1000 nM
[2]
  IC50: < 100 nM

## COn1c(=O)c(-c2c(Cl)cccc2Cl)cc2cnc(Nc3cc(C(=O)NCCO)n(C)c3)nc21 [Compound 82, 6-(2,6-Dichlorophenyl)-2-(5-(2-hydroxyethyl)aminocarbonyl-1-methyl-pyrrol-3-yl)-amino-8-methoxy-pyrido[2,3-d]pyrimidin-7-one]
[1]
  IC50: < 1000 nM
[2]
  IC50: < 500 nM

## COCCN1CCN(C(=O)c2cc(Nc3ncc4cc(-c5c(Cl)cccc5Cl)c(=O)n(OC)c4n3)cn2C)CC1 [Compound 188, 6-(2,6-Dichlorophenyl)-8-methoxy-2-(5-(4-(2-methoxy)ethyl)piperazino-carbonyl-1-methyl-pyrrol-3-yl)-amino-pyrido[2,3-d]pyrimidin-7-one]
[1]
  IC50: < 1000 nM
[2]
  IC50: < 500 nM

## CN1CC[C@H](COn2c(=O)c(-c3c(F)cccc3Cl)cc3cnc(Nc4ccc(N5CCOCC5)cc4)nc32)C1 [Compound 212, 6-(2-Chloro-6-fluorophenyl)-8-(3-(S)-1-methyl-pyrrolidin-3-yl)methoxy-2-(4-morpholinophenyl)-amino-pyrido[2,3-d]pyrimidin-7-one]
[1]
  IC50: < 1000 nM
[2]
  IC50: < 100 nM

## COCCOn1c(=O)c(-c2cc(NC(=O)c3cccc(C(F)(F)F)c3)ccc2Cl)cc2cnc(Nc3ccc(N4CCN(C)CC4)cc3)nc21 [Compound 107, 8-(2-Methoxyethyl)oxy-2-(4-(4-methylpiperazino)-6-(5-(3-trifluoromethylbenzoyl)amino-2-chloro-phenyl)-phenylamino)-pyrido[2,3-d]pyrimidin-7-one]
[1]
  IC50: < 1000 nM
[2]
  IC50: < 100 nM

## COn1c(=O)c(-c2c(Cl)cccc2Cl)cc2cnc(Nc3cc(C(=O)N4CCN(C)CC4)n(C)c3)nc21 [Compound 163, 6-(2,6-Dichlorophenyl)-8-methoxy-2-(5-(4-methylpiperazino)carbonyl-1-methyl-pyrrol-3-yl)-amino-pyrido[2,3-d]pyrimidin-7-one]
[1]
  IC50: < 1000 nM
[2]
  IC50: < 500 nM
